Where two headings read alike, the source gives them in different places.
Tests used:
[1] = test system: rat adjuvant model of arthritis; assay: Analgesic relief in rat adjuvant model of arthritis; format: in vivo
adenosine A2A receptor = adenosine A2A receptor (Homo sapiens, UniProt P29274); assay: EC50 at the adenosine A2A receptor; format: biochemical
From the text: For the avoidance of doubt, the EC50 value of a compound is defined herein as the concentration of the compound that provokes a receptor response halfway between the baseline receptor response and the maximum receptor response (as determined, for example, using a dose-response curve).
The EC50 value should be determined under standard conditions (balanced salt solutions buffered to pH 7.4). For EC50 determinations using isolated membranes, cells and tissues this would be in buffered salt solution at pH 7.4 (e.g. cell culture medium), for example as in Daly et al., Pharmacol. (1993) 46, 91-100), or preferably as in Tilburg et al (J. Med. Chem. (2002) 45, 91-100). The EC50 could also be determined in vivo by measuring adenosine receptor mediated responses in a normal healthy animal, or even in a tissue perfused under normal conditions (i.e. oxygenated blood, or oxygenated isotonic media, also buffered at pH 7.4) in a normal healthy animal.

[2] = Plasma concentrations after single oral dosing in human volunteers; format: in vivo
[3] = Tachycardia by 12 lead ECGs in human volunteers; format: in vivo
Procedure: Tachycardia was determined using 12 lead ECGs.

[4] = Minimum effective analgesic plasma concentration in the rat; format: in vivo
[5] = test system: carageenan-induced inflammation; settings: rats, 20 mg/kg po; cited from earlier work
[6] = 20 mg/kg po; cited from earlier work
[7] = test system: U937 human macrophage cells; settings: cited from earlier work
[8] = molecular target: T1, rat adenosine A2a receptors (Rattus norvegicus, UniProt P30543); assay: Binding at rat A2a receptors, rat striatal membranes, [3H]-CGS21680
T1 construct: from tissue; host or cells: rat striatum (membranes)
T1 sequence (P30543 whole entry): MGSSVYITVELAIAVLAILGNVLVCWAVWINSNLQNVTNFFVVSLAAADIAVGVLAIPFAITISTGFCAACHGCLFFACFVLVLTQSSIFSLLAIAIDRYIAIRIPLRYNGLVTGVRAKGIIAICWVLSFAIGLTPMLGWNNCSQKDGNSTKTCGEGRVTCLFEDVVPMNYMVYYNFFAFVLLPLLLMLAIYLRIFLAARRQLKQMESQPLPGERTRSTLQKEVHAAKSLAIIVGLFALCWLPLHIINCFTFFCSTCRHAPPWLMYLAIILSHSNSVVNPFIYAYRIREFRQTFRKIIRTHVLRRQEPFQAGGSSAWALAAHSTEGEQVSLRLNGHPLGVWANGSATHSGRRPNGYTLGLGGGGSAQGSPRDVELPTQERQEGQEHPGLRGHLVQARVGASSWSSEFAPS
Procedure: Chemical structures of compounds of the invention are given in the Examples below. Binding experiments were carried out using rat A2a receptors. Ki values were determined for each compound at pH 5.5 and pH 7.4.

[9] = pH 5.5, read-out: (Ki) nM (pH 5.5)
[10] = pH 7.4, read-out: (Ki) nM (pH 7.4)

Sequence of adenosine A2A receptor (P29274 whole entry): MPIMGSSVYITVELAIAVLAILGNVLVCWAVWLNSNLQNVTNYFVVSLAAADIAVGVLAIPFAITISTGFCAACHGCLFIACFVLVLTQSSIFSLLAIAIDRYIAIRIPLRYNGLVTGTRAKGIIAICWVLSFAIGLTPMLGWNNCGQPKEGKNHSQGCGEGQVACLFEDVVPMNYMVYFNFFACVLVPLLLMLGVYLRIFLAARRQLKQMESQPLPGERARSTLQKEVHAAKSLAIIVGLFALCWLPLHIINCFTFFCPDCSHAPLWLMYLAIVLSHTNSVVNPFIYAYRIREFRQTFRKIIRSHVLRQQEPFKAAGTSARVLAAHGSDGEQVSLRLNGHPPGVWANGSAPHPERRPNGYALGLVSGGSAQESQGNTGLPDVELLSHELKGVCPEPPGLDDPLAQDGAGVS

Compound | minimum plasma concentration giving maximal analgesic relief [1] [µM] | EC50 (adenosine A2A receptor) [µM] | time with plasma concentrations greater than […] ([2]; human, 0.8 mg oral) | minimum effective dose in the human ([2]; suggested from rat minimum effective plasma concentration) | Tachycardia side effect ([3]; single oral dose 0.2 mg) | Tachycardia side effect ([3]; single oral dose 0.8 mg) | Tachycardia side effect ([3]; single oral dose 3.5 mg) | Tachycardia side effect ([3]; single oral dose 10.5 mg) | Tachycardia side effect ([3]; single oral dose 21 mg) | Tachycardia side effect ([3]; single oral dose 28 mg) | minimum effective analgesic plasma concentration [4] [µM] | inhibition of carageenan-induced inflammation [5] [%] | reduction in heart rate [6] [%] | reduction in mean blood pressure [6] [%] | phorbol ester induced TNF alpha release [7] | Ki [8, 9] [nM] | Ki [8, 10] [nM]
COc1nc(N)c2ncn([C@@H]3O[C@H](CO)[C@@H](O)[C@H]3O)c2n1 [spongosine, 2-methoxyadenosine] | 0.06 | ~1 | approximately 1.5 h | approximately 0.8 mg | No | No | No | No | No | Yes | 0.025 | 25 | 25 | 41 | reduce phorbol ester induced TNF alpha release | – | –
CCCCNc1nc(N)c2ncn([C@@H]3O[C@H](CO)[C@@H](O)[C@H]3O)c2n1 [NHCH2CH2CH2CH3] | – | – | – | – | – | – | – | – | – | – | – | – | – | – | – | 47 | 17
CCCNc1nc(N)c2ncn([C@@H]3O[C@H](CO)[C@@H](O)[C@H]3O)c2n1 [NHCH2CH2CH3] | – | – | – | – | – | – | – | – | – | – | – | – | – | – | – | 1900 | 1900
